Experimental data: US20110306606A1, “NOVEL 2,6-SUBSTITUTED-3-NITROPYRIDINE DERIVATIVE, METHOD FOR PREPARING SAME, AND PHARMACEUTICAL COMPOSITION INCLUDING SAME” (priority 2008, published 2011)

Legend:
[1] = system: Osteoblasts (Calvarial cells); assay: Alkaline phosphatase (ALP) activity in osteoblasts (Calvarial cells); assay type: cell-based, mice; settings: Mus musculus, 72 h; 1 μM compound, 3 days, Calvarial cell; read-out: ALP activity (1 μM, % of Control) Calvarial cell
Outline: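 Primary calvarial osteoblasts or MC3T3-E1 cells in α-MEM with 10% FBS were treated with 1 μM compound, against a 0.1% DMSO vehicle. Cell lysates were incubated with p-nitrophenylphosphate at 37° for 30 minutes and read at 405 nm. ALP activity was expressed as p-nitrophenol/μg protein/min and reported as % change versus vehicle.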

[2] = system: Osteoblasts (Calvarial cells); settings: ICR, mouse, 72 h, 1 μM
[3] = system: formation of osteoclasts in co-culture of bone marrow cells and osteoblasts; assay: Osteoclastogenesis inhibition via co-culture system (TRAP staining); assay type: cell-based, mice; settings: Mus musculus, Osteoclast, 168 h; 1 μM compound, 7 days co-culture, TRAP-positive multinucleated osteoclasts vs vehicle control
Outline: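 Bone marrow cells from male ddY mice were co-cultured with osteoblasts for 7 days in α-MEM/10% FBS with 10^−8 M 1α,25-dihydroxyvitamin D3 and dexamethasone. Compound was present at 1 μM final and refreshed every 2–3 days. TRAP-positive cells with 6–7 nuclei were counted, with % inhibition relative to DMSO vehicle (n=4).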

[4] = system: MC3T3-E1 cells; assay: Alkaline phosphatase (ALP) activity in MC3T3-E1 cells; assay type: cell-based; settings: Mus musculus, 72 h; 1 μM compound, 3 days, MC3T3-E1 cell; read-out: ALP activity (1 μM, % of Control) MC3T3-E1 cell
Description: Differentiation and activity of osteoblasts were indirectly evaluated by measuring an ALP activity having a close relationship with osteogenesis.
Osteoblasts (Calvarial cells) prepared in Experimental Example 1 and MC3T3-E1 cells (available from RIKEN Cell Bank, Japan) were collected in α-MEM supplemented with 10% FBS, followed by cell counting. The cells were dispensed into 24-well cultureware at a density of 2×10^4 cells/well. After culturing of the cells for 24 hours, the culture media were discarded and replaced with fresh media in which test compounds were diluted to a concentration of 1 μM (1 mL/well). In addition, the vehicle control group containing 0.1% DMSO was also treated. […] When the experiment was terminated, the supernatant was removed and the cells were washed three times with cold phosphate buffer at 4°. 0.2% Triton X-100 was added to the washed cells which were then subjected to three cycles of freezing at −70° and thawing at room temperature for the complete lysis of cells. The cell extracts were pooled and centrifuged to collect the cell supernatant which was used for the measurement of ALP activity and proteins. The protein concentration was measured using a BCA assay kit (manufactured by Sigma-Aldrich). For the measurement of ALP activity, p-nitrophenylphosphate was added to the cell supernatant which was then incubated at 37° for 30 minutes, and the reaction was terminated with the addition of 50 μL of 0.2N sodium hydroxide. The standard curve was plotted at the absorbance of 405 nm using p-nitrophenol as a standard material and then the absorbance of test materials thus reacted was measured to determine the production amount of p-nitrophenol.
The ALP activity was calculated by dividing the amount of p-nitrophenol produced from each test material by the protein amount and the reaction time. Therefore, the unit of ALP activity was given in terms of p-nitrophenol/μg protein/min. The results are given in Tables 28-1 and 28-2 where the ALP activity unit of each test material was given in terms of % change through the comparison between the individual test materials and the vehicle control group.

**Q.** Which results are given for `COc1ccc(Nc2nc(NCCCn3ccnc3)ccc2[N+](=O)[O-])cc1` [Compound 25, 2-(4-methoxyphenylamino)-6-[(3-imidazol-1-yl)propylamino]-3-nitropyridine]?
**A.** activity at 1 µM [1]: 126%; Cell viability (%) Calvarial cell [2]: 101%; inhibition at 1 µM [3]: 98%; activity at 1 µM [4]: 148%

**Q.** How did the activity at 1 µM [1] turn out when `CC(C)(C)c1ccc(Nc2nc(NCCc3ccccn3)ccc2[N+](=O)[O-])cc1` [Compound 40, 2-[4-(t-butyl)phenylamino]-6-[2-(2-pyridyl)ethylamino]-3-nitropyridine] was run?
**A.** Its activity at 1 µM is 126%.

**Q.** What about the “Cell viability (%) Calvarial cell” value [2] of the same compound?
**A.** Its value is 82%.

**Q.** What about the inhibition at 1 µM [3] of the same compound?
**A.** The inhibition at 1 µM was 89%.

**Q.** What about the activity at 1 µM [4] of the same compound?
**A.** The activity at 1 µM was 210%.

**Q.** For `N#Cc1ccc(Nc2nc(NCc3ccncc3)ccc2[N+](=O)[O-])cc1` [Compound 50, 2-(4-cyanophenylamino)-6-[(4-pyridyl)methylamino]-3-nitropyridine], which activity at 1 µM [1] is on record?
**A.** The activity at 1 µM was 149%.

**Q.** And the “Cell viability (%) Calvarial cell” value [2]?
**A.** Its value is 115%.

**Q.** And the inhibition at 1 µM [3]?
**A.** Its inhibition at 1 µM is 94%.

**Q.** What about the activity at 1 µM [4] of the same compound?
**A.** Its activity at 1 µM is 177%.

**Q.** `N#Cc1cccc(Nc2nc(NCCCn3ccnc3)ccc2[N+](=O)[O-])c1` [Compound 53, 2-[3-cyanophenylamino]-6-[(3-imidazol-1-yl)propylamino]-3-nitropyridine] was tested. Which activity at 1 µM [1] did it give?
**A.** The activity at 1 µM was 134%.

**Q.** And the “Cell viability (%) Calvarial cell” value [2]?
**A.** Its value is 115%.

**Q.** And the inhibition at 1 µM [3]?
**A.** The inhibition at 1 µM was 97%.

**Q.** What about the activity at 1 µM [4] of the same compound?
**A.** Its activity at 1 µM is 121%.
